Results on 12 compounds are retold here after patent US20210347727A1 (BLADE THERAPEUTICS, INC., priority 2017, published 2021).

The target in one assay is T1, Human Calpain 9/NS1 (Homo sapiens, UniProt O14815).
T1 sequence (O14815 1-690): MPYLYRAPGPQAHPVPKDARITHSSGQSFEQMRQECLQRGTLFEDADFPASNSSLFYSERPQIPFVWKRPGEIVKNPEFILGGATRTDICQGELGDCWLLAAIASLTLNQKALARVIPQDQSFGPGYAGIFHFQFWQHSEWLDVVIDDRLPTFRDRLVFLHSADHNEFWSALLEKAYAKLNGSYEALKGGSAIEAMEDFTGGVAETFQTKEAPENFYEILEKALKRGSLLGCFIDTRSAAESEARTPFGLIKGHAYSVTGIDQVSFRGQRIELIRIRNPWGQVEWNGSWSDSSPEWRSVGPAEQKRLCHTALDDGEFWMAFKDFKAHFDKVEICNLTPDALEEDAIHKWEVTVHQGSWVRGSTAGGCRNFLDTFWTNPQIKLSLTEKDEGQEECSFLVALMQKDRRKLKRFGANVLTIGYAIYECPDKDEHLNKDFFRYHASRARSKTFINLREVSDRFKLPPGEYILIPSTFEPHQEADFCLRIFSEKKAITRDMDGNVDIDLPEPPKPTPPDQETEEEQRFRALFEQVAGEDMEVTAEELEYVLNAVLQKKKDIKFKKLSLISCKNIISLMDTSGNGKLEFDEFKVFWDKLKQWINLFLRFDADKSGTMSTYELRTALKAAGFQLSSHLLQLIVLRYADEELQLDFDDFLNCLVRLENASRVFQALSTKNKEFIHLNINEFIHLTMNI
T1 sequence (P04632 1-268 partner): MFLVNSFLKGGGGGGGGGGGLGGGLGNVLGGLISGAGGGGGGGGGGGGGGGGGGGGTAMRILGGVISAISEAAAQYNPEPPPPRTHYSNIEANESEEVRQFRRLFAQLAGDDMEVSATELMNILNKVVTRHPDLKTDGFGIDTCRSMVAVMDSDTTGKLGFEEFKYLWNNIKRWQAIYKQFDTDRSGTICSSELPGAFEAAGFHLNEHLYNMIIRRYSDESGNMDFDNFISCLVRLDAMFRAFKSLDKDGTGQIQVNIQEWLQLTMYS
The assay is described as follows: Biochemical inhibition of calpain 9, continuous fluorescence (FRET substrate) assay. The conditions noted are these: mean; read-out: Human Calpain 9/NS1 IC50 (nM)_MEAN. As for the experimental part: (§1) Calpain 1, 2, and 9 activity and inhibition thereof are assessed by means of a continuous fluorescence assay. The SensoLyte 520 Calpain substrate (Anaspec Inc) is optimized for detecting calpain activity. This substrate contains a novel internally quenched 5-FAM/QXL™ 520 FRET pair. Calpains 1, 2, and 9 cleave the FRET substrate into two separate fragments resulting in an increase of 5-FAM fluorescence that is proportional to calpain activity.
(§2) Assays are typically setup in black 384-well plates using automated liquid handling as follows. Calpain assay base buffer typically contains 50 mM Tris, pH 7.5, 100 mM NaCl and 1 mM DTT. Inhibitors are serially diluted in DMSO and used to setup 2× mixtures with calpains in the aforementioned buffer. After incubation at ambient temperature (25 C), the reaction is initiated by adding a 2× mix of the fluorescent peptide substrate and CaCl2 (required for in-situ calpain activation) in the same buffer. Reaction progress curve data are typically collected for 10 min using excitation/emission wavelengths of 490 nm/520 nm on SpectraMax i3x or the FLIPR-Tetra plate readers (Molecular Devices Inc). Reaction rates were calculated from progress curve slopes typically over 1-5 min. Dose response curves (rate vs. log inhibitor concentration) were typically fit to a 4-parameter logistic function to extract IC50 values.

The target in another assay is T2, Human Calpain 1/NS1 (Homo sapiens, UniProt P07384).
T2 sequence (P07384 1-714): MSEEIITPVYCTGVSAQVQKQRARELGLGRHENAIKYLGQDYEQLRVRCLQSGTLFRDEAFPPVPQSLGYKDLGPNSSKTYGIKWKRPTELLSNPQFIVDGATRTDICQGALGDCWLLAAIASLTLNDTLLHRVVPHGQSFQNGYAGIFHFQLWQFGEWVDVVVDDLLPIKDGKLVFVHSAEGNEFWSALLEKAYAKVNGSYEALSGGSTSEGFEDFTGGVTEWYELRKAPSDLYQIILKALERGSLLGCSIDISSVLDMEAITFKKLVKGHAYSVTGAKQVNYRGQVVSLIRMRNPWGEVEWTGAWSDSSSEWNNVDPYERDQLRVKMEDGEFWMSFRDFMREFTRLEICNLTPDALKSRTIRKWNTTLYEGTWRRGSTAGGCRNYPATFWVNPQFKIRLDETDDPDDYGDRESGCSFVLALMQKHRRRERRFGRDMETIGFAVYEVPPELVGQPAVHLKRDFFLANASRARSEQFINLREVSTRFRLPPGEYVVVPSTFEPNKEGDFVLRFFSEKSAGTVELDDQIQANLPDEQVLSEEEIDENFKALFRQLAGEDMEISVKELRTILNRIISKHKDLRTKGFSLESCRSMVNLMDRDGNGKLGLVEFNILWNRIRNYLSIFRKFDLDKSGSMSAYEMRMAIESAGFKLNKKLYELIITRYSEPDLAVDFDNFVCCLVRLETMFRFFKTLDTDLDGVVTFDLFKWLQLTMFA
T2 sequence (P04632 1-268 partner): T1 sequence (P04632 1-268 partner)
The assay can be described thus: Biochemical inhibition of calpain 1, continuous fluorescence (FRET substrate) assay. The conditions noted are these: mean; read-out: Human Calpain 1/NS1 IC50 (nM)_MEAN. As for the experimental part:
as §1, §2

For assay [1], the system named is calpain activity in SH-SY5Y cells (Spectrin). The assay can be described thus: SH-SY5Y Spectrin cellular calpain inhibition. It counts as cell-based.
Assay [2] has as its system calpain activity in SH-SY5Y cells. The assay is described as follows: SH-SY5Y cellular calpain activity, Suc-LLVY-AMC fluorescence assay. It is filed as cell-based. The conditions noted are these: Suc-LLVY-AMC substrate. How it is done: Calpain activity in SH-SY5Y cells and inhibition thereof were assessed by means of a homogeneous, fluorescence assay that uses the cell-permeable and pro-fluorescent calpain substrate Suc-LLVY-AMC (Sigma-Aldrich Inc). Upon intracellular calpain cleavage of Suc-LLVY-AMC, fluorescent amino-methyl-coumarin (AMC) is released into the media resulting in a continuous increase in fluorescence signal that is proportional to intra-cellular calpain activity.
Assays were typically setup by seeding SH-SY5Y cells in black 384-well plates at 40 k/per well in RPMI-1640 containing 1% serum followed by 37 C overnight incubation. Next morning, cells were pre-incubated for 30 min with serially diluted compounds followed by addition of 100 uM of Suc-LLVY-AMC substrate. The continuous increase in AMC fluorescence is monitored using a FLIPR, Tetra plate reader (Molecular Devices Inc) and slopes measured to report calpain activity. Dose response curves (slopes vs. log inhibitor concentration) were typically fit to a 4-parameter logistic function to extract IC50 values.

Another assay has as its target T3, Human Calpain 2/NS1 (Homo sapiens, UniProt P17655).
T3 sequence (P17655 1-700): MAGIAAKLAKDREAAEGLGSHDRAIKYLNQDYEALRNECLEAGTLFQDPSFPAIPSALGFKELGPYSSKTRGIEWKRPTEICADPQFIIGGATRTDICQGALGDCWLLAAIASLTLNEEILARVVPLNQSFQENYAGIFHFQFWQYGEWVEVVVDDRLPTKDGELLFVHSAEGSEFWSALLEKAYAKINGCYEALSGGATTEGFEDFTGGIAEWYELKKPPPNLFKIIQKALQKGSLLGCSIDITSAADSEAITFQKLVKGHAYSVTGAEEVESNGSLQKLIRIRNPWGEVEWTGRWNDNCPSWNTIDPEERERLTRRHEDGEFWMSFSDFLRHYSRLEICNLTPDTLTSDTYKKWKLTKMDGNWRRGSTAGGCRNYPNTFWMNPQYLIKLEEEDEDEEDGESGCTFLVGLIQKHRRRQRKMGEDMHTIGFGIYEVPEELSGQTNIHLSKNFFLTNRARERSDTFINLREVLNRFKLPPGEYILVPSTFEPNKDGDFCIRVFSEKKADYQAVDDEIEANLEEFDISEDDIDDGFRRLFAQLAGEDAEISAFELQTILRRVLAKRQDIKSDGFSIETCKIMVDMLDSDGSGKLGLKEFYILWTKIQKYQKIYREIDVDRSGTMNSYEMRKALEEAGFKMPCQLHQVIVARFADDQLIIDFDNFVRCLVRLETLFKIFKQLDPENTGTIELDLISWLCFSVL
T3 sequence (P04632 1-268 partner): T1 sequence (P04632 1-268 partner)
The assay is described as follows: Biochemical inhibition of calpain 2, continuous fluorescence (FRET substrate) assay. The conditions noted are these: mean; read-out: Human Calpain 2/NS1 1C50 [sic] (nM)_MEAN. How it is done:
as §1, §2

With `Cc1ccc(Cl)c(C(=O)N[C@@H](Cc2ccccc2)C(=O)C(N)=O)c1F` [Compound 31, (S)—N-(4-AMINO-3,4-DIOXO-1-PHENYLBUTAN-2-YL)-6-CHLORO-2-FLUORO-3-METHYLBENZAMIDE], the IC50 on Human Calpain 9/NS1 is under 3000 nM; on Human Calpain 1/NS1 it was under 3000 nM; in assay [1], under 10 µM; in assay [2], under 10 µM; at Human Calpain 2/NS1 it was under 3000 nM.
`O=CC(Cc1ccccc1)NC(=O)c1c(F)cccc1F` (stereo not drawn) [Compound 40, 2,6-DIFLUDRO-N-(1-OXO-3-PHENYLPROPAN-2-YL)BENZAMIDE]: the IC50 at Human Calpain 9/NS1 was under 3000 nM; on Human Calpain 1/NS1 it was under 3000 nM; in assay [1] it was 10 to 25 µM; in assay [2] it was over 25 µM; at Human Calpain 2/NS1, under 3000 nM.
Turning to `NC(=O)C(=O)C(Cc1ccccc1)NC(=O)c1cccc2c1oc1ccccc12` (stereo not drawn) [Compound 9, N-(4-AMINO-3,4-DIOXO-1-PHENYLBUTAN-2-YL)DIBENZO[b,d]FURAN-4-CARBOXAMIDE], the IC50 at Human Calpain 9/NS1 was under 3000 nM; on Human Calpain 1/NS1, under 3000 nM; in assay [1], over 25 µM; in assay [2], over 25 µM; on Human Calpain 2/NS1, under 3000 nM.
With `O=CC(Cc1ccccc1)NC(=O)c1cccc2c1Oc1ccccc1O2` (stereo not drawn) [Compound 48], the IC50 at Human Calpain 9/NS1 was under 3000 nM; on Human Calpain 1/NS1, under 3000 nM; in assay [1], over 25 µM; in assay [2] it was over 25 µM; on Human Calpain 2/NS1, under 3000 nM.
As to `Cn1c2ccccc2c2c(C(=O)NC(C=O)Cc3ccccc3)cccc21` (stereo not drawn) [Compound 47, 9-METHYL-N-(1-OXO-3-PHENYLPROPAN-2-YL)-9H-CARBAZOLE-4-CARBOXAMIDE], the IC50 at Human Calpain 9/NS1 is under 3000 nM; at Human Calpain 1/NS1 it was under 3000 nM; in assay [1], over 25 µM; in assay [2], under 10 µM; at Human Calpain 2/NS1, under 3000 nM.
`NC(=O)C(=O)[C@H](Cc1ccccc1)NC(=O)c1c(C(F)(F)F)ccc(Cl)c1F` [Compound 32, (S)—N-(4-AMINO-3,4-DIOXO-1-PHENYLBUTAN-2-YL)-3-CHLORO-2-FLUORO-6-(TRIFLUOROMETHYL)BENZAMIDE]: the IC50 was under 3000 nM on Human Calpain 9/NS1; under 3000 nM on Human Calpain 1/NS1; under 10 µM in assay [1]; under 10 µM in assay [2]; under 3000 nM at Human Calpain 2/NS1.
As for `COc1ccc(F)c(C(=O)N[C@@H](Cc2ccccc2)C(=O)C(N)=O)c1Cl` [Compound 29, (S)—N-(4-AMINO-3,4-DIOXO-1-PHENYLBUTAN-2-YL)-2-CHLORO-6-FLUORO-3-METHOXYBENZAMIDE], the IC50 is under 3000 nM on Human Calpain 9/NS1; under 3000 nM on Human Calpain 1/NS1; 10 to 25 µM in assay [1]; under 10 µM in assay [2]; under 3000 nM at Human Calpain 2/NS1.
For `O=CC(Cc1ccccc1)NC(=O)c1c(C(F)(F)F)ccc(Cl)c1F` (stereo not drawn) [Compound 38, 3-CHLORO-2-FLUORO-N-(1-OXO-3-PHENYLPROPAN-2-YL)-6-(TRIFLUOROMETHYL)BENZAMIDE], the IC50 on Human Calpain 9/NS1 is under 3000 nM; at Human Calpain 1/NS1, under 3000 nM; in assay [1] it was under 10 µM; in assay [2], 10 to 25 µM; at Human Calpain 2/NS1, under 3000 nM.
For the compound `O=CC(Cc1ccccc1)NC(=O)c1cccc2c1oc1ccccc12` (stereo not drawn) [Compound 46, N-(1-OXO-3-PHENYLPROPAN-2-YL)DIBENZO[b,a]FURAN-4-CARBOXAMIDE], the IC50 on Human Calpain 9/NS1 is 3000 to 10000 nM; at Human Calpain 1/NS1 it was 3000 to 10000 nM; in assay [1], 10 to 25 µM; in assay [2], over 25 µM; at Human Calpain 2/NS1, under 3000 nM.
With `NC(=O)C(=O)[C@H](Cc1ccccc1)NC(=O)c1c(Cl)cccc1Cl` [Compound 1, (S)—N-(4-AMINO-3,4-DIOXO-1-PHENYLBUTAN-2-YL)-2,6-DICHLOROBENZAMIDE], the IC50 at Human Calpain 9/NS1 is under 3000 nM; on Human Calpain 1/NS1, under 3000 nM; in assay [1], 10 to 25 µM; in assay [2], over 25 µM; at Human Calpain 2/NS1, under 3000 nM.
Turning to `NC(=O)C(=O)[C@H](Cc1ccccc1)NC(=O)c1c(F)cccc1C(F)(F)F` [Compound 16, (S)—N-(4-AMINO-3,4-DIOXO-1-PHENYLBUTAIN-2-YL)-2-FLUORO-6-(TRIFLUOROMETHYL)BENZAMIDE], the IC50 at Human Calpain 9/NS1 was under 3000 nM; on Human Calpain 1/NS1, under 3000 nM; in assay [1], 10 to 25 µM; in assay [2] it was over 25 µM; on Human Calpain 2/NS1, under 3000 nM.
Turning to `NC(=O)C(=O)[C@H](Cc1ccccc1)NC(=O)c1cc(F)c(Cl)cc1Cl` [Compound 33, (S)—N-(4-AMINO-3,4-DIOXO-1-PHENYLBUTAN-2-YL)-2,4-DICHLORO-5-FLUOROBENZAMIDE], the IC50 on Human Calpain 9/NS1 is under 3000 nM; at Human Calpain 1/NS1 it was under 3000 nM; in assay [1], under 10 µM; in assay [2], under 10 µM; at Human Calpain 2/NS1, under 3000 nM.
